# Columns and labels:
# [1] = target: T1, h-5-HT6 receptor (Homo sapiens, UniProt P50406); test: 5-HT6 receptor binding assay (displacement of [3H]-LSD); details: cloned human 5-HT6 receptor, HEK293 membranes, 1 nM [3H]-LSD
# T1 construct: expressed in transfected cells
# Protocol: Displacement of radioligands binding to the following cloned human receptors
# 1. Preparation of Membranes by Ultrasonic Treatment and Differential Centrifugation
# Cells from stable clonal cell lines expressing the corresponding receptor (5-HT6, α1-adrenergic, dopamine D2 or histamine H1 receptors) were washed with PBS (w/o Ca^++, Mg^++) and harvested in PBS with 0.02% EDTA. The cells were collected by centrifugation at 500 g for 10 min. at 4° C., washed with PBS and centrifuged (500 g, 10 min. 4° C.). The pellets were stored at −80° C. until use. For membrane preparation, the thawed cell pellet was resuspended in ice-cold sucrose buffer (0.25 M sucrose, 10 mM Hepes (pH 7.4), 1 mM Phenylmethylsulfonyl fluoride (PMSF) in DMSO, 5 μg/ml Pepstatin-A, 3 mM EDTA, 0.025% Bacitracin) and homogenized with a Branson Sonifier W-250 (Settings: Timer 4; Output Control 3; Duty Cycle constant; 2 to 3 cycles). Cell disruption was checked with the aid of a microscope. Remaining unbroken cells were pelleted at 1.000 g for 10 min. at 4° C. The sucrose buffer supernatant was then centrifuged at 60.000 g for 1 h at 4° C. (Beckman Ultrazentrifuge XL 80). The pellet was resuspended in 30 ml ice-cold Tris buffer (20 mM TRIS (pH 7.4), 5 μg/ml Pepstatin A, 0.1 mM PMSF, 3 mM EDTA) by pipetting through a 10 ml serological pipet and centrifuged for 1 h at 4° C. at 60.000 g. A final resuspension was performed in a small volume of ice-cold Tris buffer (see above) by pressing through a serological pipet followed by ultrasonic treatment with a Branson Sonifier W-250 (Settings: Timer 1; Output Control 3; Duty Cycle constant; 1 cycle). Protein concentration was determined (BCA-Kit; Pierce) and aliquots stored at −80° C. or in liquid nitrogen for long-term storage.
# 2. Receptor Binding Experiments
# All receptor binding experiments were carried out in the corresponding assay buffer in a total volume of 200 μl in the presence of various concentrations of test compound (10^−5 M to 10^−9 M, tenfold serial dilution, duplicate determinations). The assays were terminated by filtration on polyethylenimine (PEI 0.1% or 0.3%) presoaked Packard Unifilter Plates (GF/C or GF/B) with a Tomtec MachIII U 96 well-plate harvester. After the plates had been dried for 2 h at 55° C. in a drying chamber scintillation cocktail (BetaPlate Scint; PerkinElmer) was added. Radioactivity was measured in a Microbeta Trilux two hours after the addition of the scintillation mixture. Data derived from liquid scintillation counting were analysed by iterative non-linear regression analysis with the use of the Statistical Analysis System (SAS): a program similar to “LIGAND” as described by Munson and Rodbard (Analytical Biochemistry 107, 220-239 (1980).
# a) 5-HT6 Receptor Binding Assay
# HEK293 cells stably expressing the h-5-HT6 receptor (NCBI Reference Sequence XM 001435) were cultured in RPMI1640 medium supplemented with 25 mM HEPES, 10% fetal calf serum and 1-2 mM glutamine. The membrane preparation was performed as described in section 1. […] Non-specific binding was defined with 1 μM methiothepin. The binding reaction was carried out for 3.5 h at room temperature. During the incubation, the plates were shaken on a plate shaker at 100 rpm and terminated by filtration on Packard Unifilter GF/C (0.1% PEI) plates, followed by 2 wash cycles with ice-cold 50 mM Tris-HCl, 5 mM CaCl2.
# Data derived from liquid scintillation counting were analyzed by iterative non-linear regression analysis with the use of the Statistical Analysis System (SAS): a program similar to “LIGAND” as described by Munson and Rodbard (Anal. Biochem. 1980, 107, 220-239). Fitting was performed according to formulae described by Feldman (Anal. Biochem. 1972, 48, 317-338). IC50, nH and Ki values were expressed as geometrical mean.
# [2] = Metabolic stability in human liver microsomes (microsomal clearance); assay type: in vitro ADME; details: pH 7.4; human liver microsomes 0.25 mg protein/mL, 0.5 μM compound, NADPH, 37° C.; read-out: mClint
# Protocol: Samples of the tested compounds (0.5 μM) were preincubated together with human liver microsomes (0.25 mg of microsomal protein/mL) in 0.05 M potassium phosphate buffer of pH 7.4 in microtiter plates at 37° C. for 5 minutes. The reaction was started by adding NADPH (1.0 mM). After 0, 5, 10, 15, 20 and 30 minutes, an aliquot was removed, the reaction was cooled and stopped by adding twice the amount of quench solution consisting of acetonitrile/methanol 1:1, and containing 0.2 μM carbutamide as internal standard. The samples were frozen until analyzed. The remaining concentration of undegraded test substance was determined by liquid chromatography-tandem mass spectrometry (LC-MS/MS). The half-life (t1/2) was determined from the gradient of the ratio of the signal of (test substance/internal standard)/unit time plot, allowing the calculation of the half-life of the test substance, assuming first order kinetics, from the decrease in the concentration of the compound with time. The microsomal clearance (mClint) was calculated as follows: mClint=((ln(2)/t 1/2)/Microsomal Protein Concentration (mg/ml))*1000, leading to the unit of μL/min/mg.
# T1 sequence (P50406 whole entry): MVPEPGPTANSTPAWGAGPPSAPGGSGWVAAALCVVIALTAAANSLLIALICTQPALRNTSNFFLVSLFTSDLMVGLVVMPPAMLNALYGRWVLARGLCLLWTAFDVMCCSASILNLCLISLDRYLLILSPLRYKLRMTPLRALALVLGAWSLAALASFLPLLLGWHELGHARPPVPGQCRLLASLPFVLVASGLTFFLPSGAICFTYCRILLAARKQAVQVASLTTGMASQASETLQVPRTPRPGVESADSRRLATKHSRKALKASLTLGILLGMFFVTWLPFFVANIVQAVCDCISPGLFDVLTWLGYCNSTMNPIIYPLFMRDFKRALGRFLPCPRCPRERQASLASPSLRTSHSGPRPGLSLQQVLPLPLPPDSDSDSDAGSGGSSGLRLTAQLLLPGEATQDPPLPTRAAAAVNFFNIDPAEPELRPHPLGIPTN
SMILES,Ki [1] [nM],microsomal CLint at 0.5 μM [2] [µL/min/mg]
"O=S(=O)(c1cccc(F)c1)c1cnc2c(N3CC[C@H](O)C3)cccc2c1 [Example 26, (3S)-1-[3-(3-Fluorophenyl)sulfonyl-8-quinolyl]pyrrolidin-3-ol]",< 10,
"O=C(O)CC1CCN(c2cccc3cc(S(=O)(=O)c4cccc(C(F)(F)F)c4)cnc23)CC1 [Example 57, 2-[1-[3-[3-(Trifluoromethyl)phenyl]sulfonyl-8-quinolyl]-4-piperidyl]acetic Acid]",,< 30
"O=S(=O)(c1ccccc1)c1cnc2c(N3CCC[C@H](O)C3)cccc2c1 [Example 22, (3S)-1-[3-(Benzenesulfonyl)-8-quinolyl]piperidin-3-ol]",10 to 100,30 to 60
"O=S(=O)(c1cccc(F)c1)c1cnc2c(N3CC[C@@H](O)C3)cccc2c1 [Example 33, (3R)-1-[3-(3-Fluorophenyl)sulfonyl-8-quinolyl]pyrrolidin-3-ol]",< 10,30 to 60
"O=S(=O)(c1cccc(C(F)(F)F)c1)c1cnc2c(N3CC(O)C3)cccc2c1 [Example 8, 1-[3-[3-(Trifluoromethyl)phenyl]sulfonyl-8-quinolyl]azetidin-3-ol]",< 10,30 to 60
"O=S(=O)(c1ccccc1)c1cnc2c(N3CCC[C@@H](O)C3)cccc2c1 [Example 23, (3R)-1-[3-(Benzenesulfonyl)-8-quinolyl]piperidin-3-ol]",< 10,30 to 60
"COc1ccc(C)cc1S(=O)(=O)c1cnc2c(N3CC(O)C3)cccc2c1 [Example 40, 1-[3-(2-Methoxy-5-methyl-phenyl)sulfonyl-8-quinolyl]azetidin-3-ol]",10 to 100,
"O=C(O)C1CCN(c2cccc3cc(S(=O)(=O)c4cccc(N5CCCC5)c4)cnc23)CC1 [Example 53, 1-[3-(3-Pyrrolidin-1-ylphenyl)sulfonyl-8-quinolyl]piperidine-4-carboxylic Acid]",,30 to 60
"O=S(=O)(c1cccc(C(F)(F)F)c1)c1cnc2c(N3CCC[C@@H](O)C3)cccc2c1 [Example 5, (R)-1-[3-(3-Trifluoromethyl-benzenesulfonyl)-quinolin-8-yl]-piperidin-3-ol]",< 10,60 to 120
"O=S(=O)(c1cccc(F)c1)c1cnc2c(N3CCC[C@H](O)C3)cccc2c1 [Example 27, (3S)-1-[3-(3-Fluorophenyl)sulfonyl-8-quinolyl]piperidin-3-ol]",< 10,30 to 60
"O=C(O)c1cccc(S(=O)(=O)c2cnc3c(N4CCC(C(=O)O)CC4)cccc3c2)c1 [Example 49, 1-[3-(3-Carboxyphenyl)sulfonyl-8-quinolyl]piperidine-4-carboxylic Acid]",,< 30
"O=S(=O)(c1cccc(C(F)(F)F)c1)c1cnc2c(N3CCC(O)CC3)cccc2c1 [Example 1, 1-[3-(3-Trifluoromethyl-benzenesulfonyl)-quinolin-8-yl]-piperidin-4-ol]",< 10,30 to 60
"O=C(O)[C@@H]1CCN(c2cccc3cc(S(=O)(=O)c4cccc(C(F)(F)F)c4)cnc23)C1 [Example 12, (3R)-1-[3-[3-(Trifluoromethyl)phenyl]sulfonyl-8-quinolyl]pyrrolidine-3-carboxylic Acid]",10 to 100,< 30
"CN1CCN(c2cccc(S(=O)(=O)c3cnc4c(N5CCC(C(=O)O)CC5)cccc4c3)c2)CC1 [Example 56, 1-[3-[3-(4-Methylpiperazin-1-yl)phenyl]sulfonyl-8-quinolyl]piperidine-4-carboxylic Acid]",,< 30
"Cc1cccc(S(=O)(=O)c2cnc3c(N4CCC(C(=O)O)CC4)cccc3c2)c1 [Example 50, 1-[3-(m-Tolylsulfonyl)-8-quinolyl]piperidine-4-carboxylic Acid]",,< 30
"O=C(O)C1CCN(c2cccc3cc(S(=O)(=O)c4cccc(OC(F)(F)F)c4)cnc23)CC1 [Example 51, 1-[3-[3-(Trifluoromethoxy)phenyl]sulfonyl-8-quinolyl]piperidine-4-carboxylic Acid]",,30 to 60
"O=C(O)CC1CCCN(c2cccc3cc(S(=O)(=O)c4cccc(C(F)(F)F)c4)cnc23)C1 (centres unmarked) [Example 58, 2-[1-[3-[3-(Trifluoromethyl)phenyl]sulfonyl-8-quinolyl]-3-piperidyl]acetic Acid]",,30 to 60
"O=C(O)[C@H]1CCN(c2cccc3cc(S(=O)(=O)c4cccc(C(F)(F)F)c4)cnc23)C1 [Example 11, (3S)-1-[3-[3-(Trifluoromethyl)phenyl]sulfonyl-8-quinolyl]pyrrolidine-3-carboxylic Acid]",10 to 100,
"COc1cccc(S(=O)(=O)c2cnc3c(N4CC(O)C4)cccc3c2)c1 [Example 14, 1-[3-(3-Methoxyphenyl)sulfonyl-8-quinolyl]azetidin-3-ol]",10 to 100,
"O=C(O)C1CCN(c2cccc3cc(S(=O)(=O)c4cccc(F)c4)cnc23)CC1 [Example 52, 1-[3-(3-Fluorophenyl)sulfonyl-8-quinolyl]piperidine-4-carboxylic Acid]",,30 to 60
"COc1ccc(C)cc1S(=O)(=O)c1cnc2c(N3CCC(O)CC3)cccc2c1 [Example 35, 1-[3-(2-Methoxy-5-methyl-phenyl)sulfonyl-8-quinolyl]piperidin-4-ol]",10 to 100,
"NC(=O)C1CCCN(c2cccc3cc(S(=O)(=O)c4cccc(C(F)(F)F)c4)cnc23)C1 (centres unmarked) [Example 46, 1-[3-(3-Trifluoromethyl-benzenesulfonyl)-quinolin-8-yl]-piperidine-3-carboxylic Acid Amide]",< 10,
"O=C(O)C1CCN(c2cccc3cc(S(=O)(=O)c4cccc(N5CCNCC5)c4)cnc23)CC1 [Example 55, 1-[3-(3-Piperazin-1-ylphenyl)sulfonyl-8-quinolyl]piperidine-4-carboxylic Acid]",,< 30
"O=S(=O)(c1cnc2c(F)cccc2c1)c1ccccc1N1CC(O)C1 [Example 38, 1-[2-[(8-Fluoro-3-quinolyl)sulfonyl]phenyl]azetidin-3-ol]",100 to 500,
"COC1CCN(c2cccc(S(=O)(=O)c3cnc4c(N5CCC(C(=O)O)CC5)cccc4c3)c2)C1 (centres unmarked) [Example 54, 1-[3-[3-(3-Methoxypyrrolidin-1-yl)phenyl]sulfonyl-8-quinolyl]piperidine-4-carboxylic Acid]",,< 30
"O=S(=O)(c1cnc2c(F)cccc2c1)c1ccccc1N1CCC(O)CC1 [Example 25, 1-[2-[(8-Fluoro-3-quinolyl)sulfonyl]phenyl]piperidin-4-ol]",10 to 100,
"N#Cc1cccc(S(=O)(=O)c2cnc3c(N4CCC(C(=O)O)CC4)cccc3c2)c1 [Example 47, 1-[3-(3-Cyanophenyl)sulfonyl-8-quinolyl]piperidine-4-carboxylic Acid]",,< 30

# From US10160744B2, “Quinoline compounds suitable for treating disorders that respond to the modulation of the serotonin 5-HT6 receptor” (Abbvie Deutschland GmbH & Co. KG, priority 2016, dated 2018)
